{"source": "patent US20240383908A1", "about": "“SYNTHESIS AND APPLICATION OF PHOSPHATASE DEGRADER” (HINOVA PHARMACEUTICALS INC., priority 2021, published 2024)", "note": "Counter-ions that a name gives are not always drawn.", "data": [{"target": "T1, SHP2 protein (Homo sapiens, UniProt Q06124)", "T1 sequence (Q06124 1-593)": "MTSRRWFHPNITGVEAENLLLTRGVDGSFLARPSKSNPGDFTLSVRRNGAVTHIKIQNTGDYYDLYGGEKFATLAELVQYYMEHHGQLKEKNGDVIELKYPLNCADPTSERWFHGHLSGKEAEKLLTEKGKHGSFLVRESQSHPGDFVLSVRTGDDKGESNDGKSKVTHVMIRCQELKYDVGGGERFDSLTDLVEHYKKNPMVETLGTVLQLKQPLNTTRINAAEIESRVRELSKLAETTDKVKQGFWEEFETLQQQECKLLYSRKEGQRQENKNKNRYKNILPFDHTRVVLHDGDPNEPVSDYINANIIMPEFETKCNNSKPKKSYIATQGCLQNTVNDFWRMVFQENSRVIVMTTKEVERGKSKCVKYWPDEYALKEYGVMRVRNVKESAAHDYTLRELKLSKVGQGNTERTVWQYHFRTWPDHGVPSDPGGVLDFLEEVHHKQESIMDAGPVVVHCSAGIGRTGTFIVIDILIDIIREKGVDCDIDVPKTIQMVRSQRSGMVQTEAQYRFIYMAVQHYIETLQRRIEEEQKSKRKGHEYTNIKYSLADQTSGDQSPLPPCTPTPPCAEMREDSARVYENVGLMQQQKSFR", "experiment": "Degradation activity on SHP2 protein in MIA Paca-2 cells (Western blot, DC50)", "type": "cell-based", "set-up": "endogenous in cells; host or cells: MIA Paca-2 cells", "details": "read-out: Degradation activity for differenct cell lines MIA Paca-2 (DC50)", "protocol": "(1) MV-411 cells were cultured in the cell culture medium, and then well-growing cells were selected and inoculated in a 12-well plate, with 1 mL/well and 1×10^6 cells/well. The plate was incubated overnight in a 5% CO2 cell incubator at 37° C.\n(2) 10 mM storage solution of each drug was prepared using dimethylsulfoxide (DMSO). The stock solution was diluted gradually with DMSO before use, and then 1 μL of the compound solution was added to the cell culture well (to ensure that the DMSO concentration in the culture system was […]), so that the final drug concentration is 100 nM, 10 nM, 3 nM, 1 nM, 0.3 nM, and 0.1 nM. Two wells were set for each concentration. The plate was gently shaken and mixed. Additionally, negative control wells (containing an equal amount of DMSO) and positive control wells were included.\n(3) After 24 hours of cultivation, the cells were lysed using RIPA cell lysate, and the proteins were extracted. The protein concentration was measured using a BCA assay kit. 5× concentrated protein buffer was loaded, heated at 100° C. for 5 min, and then the sample was stored at −20° C.\n(4) For each well, 30 μg of protein was loaded to polyacrylamide gel for electrophoresis.\n(5) The protein was transferred from polyacrylamide gel to PVDF membrane, and sealed at room temperature with 5% skimmed milk for 1 h, which was then incubated with the primary antibodies (Anti-SHP2 rabbit mAb and Anti-GAPDH rabbit mAb) at 4° C. overnight. The membrane was washed three times with TBST solution, 10 minutes for each time. After that, the membrane was incubated with the secondary antibodies (horseradish peroxidase labeled goat anti-rabbit IgG) at room temperature for 2 h, and then washed three times with TBST solution, 10 minutes for each time, followed by exposure.\n(6) The images were analyzed with Image J grayscale, and the degradation ratio of protein bands in the test group was calculated, based on the negative control group (DMSO) (100%).\n(7) Using the Dose-response-inhibition equation in the data processing software GraphPad Prism 8, the DC50 value was obtained (which represents the drug concentration corresponding to 50% degradation of the target protein).\nUsing similar methods and different cell lines, the degradation activity of the compound according to the present invention on SHP2 protein of different cell lines was tested under suitable culture conditions.", "units": {"DC50": "nM"}, "values": [{"smiles": "C[C@@H]1OCC2(CCN(c3cnc(Sc4cccc(NC(=O)CCN5CC=C(c6ccc(C(=O)N7CCN(c8ccc9c(c8)CN(C8CCC(=O)NC8=O)C9=O)CC7)nc6)C(C)(C)C5)c4)cn3)CC2)[C@@H]1N", "note": "(some centres unmarked) [Compound 276]", "DC50": "> 1000"}, {"smiles": "CC1(N)CCN(c2cnc(Sc3cccc(NC(=O)c4ccc(N5CCC(N6CCN(c7ccc8c(c7)C(=O)N(C7CCC(=O)NC7=O)C8=O)CC6)CC5)c(F)c4)c3)cn2)CC1", "note": "(centres unmarked) [Compound 277]", "DC50": "> 1000"}, {"smiles": "CC1(N)CCN(c2cnc(Sc3cccc(NC(=O)c4ccc(N5CCC(N6CCN(c7ccc8c(c7)CN(C7CCC(=O)NC7=O)C8=O)CC6)CC5)c(F)c4)c3)cn2)CC1", "note": "(centres unmarked) [Compound 278]", "DC50": "> 1000"}, {"smiles": "C[C@@H]1OCC2(CCN(c3cnc(Sc4cccc(NC(=O)c5ccc(N6CCC(N7CCN(c8ccc9c(c8)C(=O)N(C8CCC(=O)NC8=O)C9=O)CC7)CC6)c(F)c5)c4)cn3)CC2)[C@@H]1N", "note": "(some centres unmarked) [Compound 279]", "DC50": "> 1000"}, {"smiles": "C[C@@H]1OCC2(CCN(c3cnc(Sc4cccc(NC(=O)c5ccc(N6CCC(N7CCN(c8ccc9c(c8)CN(C8CCC(=O)NC8=O)C9=O)CC7)CC6)c(F)c5)c4)cn3)CC2)[C@@H]1N", "note": "(some centres unmarked) [Compound 280]", "DC50": "> 1000"}, {"smiles": "CC1(N)CCN(c2cnc(Sc3cccc(NC(=O)[C@H]4C[C@@H]4c4ccc(N5CCN(c6ccc(C(=O)NCc7ccc8c(c7)CN(C7CCC(=O)NC7=O)C8=O)nn6)CC5)c(F)c4)c3)cn2)CC1", "note": "(some centres unmarked) [Compound 281]", "DC50": "> 1000"}, {"smiles": "C[C@@H]1OCC2(CCN(c3cnc(Sc4cccc(NC(=O)[C@H]5C[C@@H]5c5ccc(N6CCN(c7ccc(C(=O)NCc8ccc9c(c8)CN(C8CCC(=O)NC8=O)C9=O)nn7)CC6)c(F)c5)c4)cn3)CC2)[C@@H]1N", "note": "(some centres unmarked) [Compound 282]", "DC50": "> 1000"}, {"smiles": "CC1(N)CCN(c2cnc(Sc3cccc(NC(=O)[C@H]4C[C@@H]4c4ccc(N5CCN(c6ccc(C(=O)N7CCN(c8ccc9c(c8)CN(C8CCC(=O)NC8=O)C9=O)CC7)nn6)CC5)c(F)c4)c3)cn2)CC1", "note": "(some centres unmarked) [Compound 283]", "DC50": "> 1000"}, {"smiles": "C[C@@H]1OCC2(CCN(c3cnc(Sc4cccc(NC(=O)[C@H]5C[C@@H]5c5ccc(N6CCN(c7ccc(C(=O)N8CCN(c9ccc%10c(c9)CN(C9CCC(=O)NC9=O)C%10=O)CC8)nn7)CC6)c(F)c5)c4)cn3)CC2)[C@@H]1N", "note": "(some centres unmarked) [Compound 284]", "DC50": "< 100"}, {"smiles": "C[C@@H]1OCC2(CCN(c3cnc(Sc4cccc(NC(=O)c5ccc(CN6CCN(c7ccc8c(c7)CN(C7CCC(=O)NC7=O)C8=O)CC6)cc5)c4)cn3)CC2)[C@@H]1N", "note": "(some centres unmarked) [Compound 285]", "DC50": "> 1000"}, {"smiles": "CC1(N)CCN(c2cnc(Sc3cccc(NC(=O)c4ccc(CN5CCN(c6ccc7c(c6)CN(C6CCC(=O)NC6=O)C7=O)CC5)cc4)c3)cn2)CC1", "note": "(centres unmarked) [Compound 286]", "DC50": "> 1000"}, {"smiles": "C[C@@H]1OCC2(CCN(c3cnc(Sc4cccc(NC(=O)c5ccc(CN6CCN(c7ccc8c(c7)C(=O)N(C7CCC(=O)NC7=O)C8=O)CC6)cc5)c4)cn3)CC2)[C@@H]1N", "note": "(some centres unmarked) [Compound 287]", "DC50": "> 1000"}, {"smiles": "CC1(N)CCN(c2cnc(Sc3cccc(NC(=O)c4ccc(CN5CCN(c6ccc7c(c6)C(=O)N(C6CCC(=O)NC6=O)C7=O)CC5)cc4)c3)cn2)CC1", "note": "(centres unmarked) [Compound 288]", "DC50": "> 1000"}, {"smiles": "C[C@@H]1OCC2(CCN(c3cnc(Sc4cccc(NC(=O)CCN5CCN(c6ccc(C(=O)NCc7ccc8c(c7)CN(C7CCC(=O)NC7=O)C8=O)nn6)CC5)c4)cn3)CC2)[C@@H]1N", "note": "(some centres unmarked) [Compound 289]", "DC50": "> 1000"}, {"smiles": "CC1(N)CCN(c2cnc(Sc3cccc(NC(=O)C4CC45CCN(C4CCN(c6ccc(C(=O)NCc7ccc8c(c7)CN(C7CCC(=O)NC7=O)C8=O)nn6)CC4)CC5)c3)cn2)CC1", "note": "(centres unmarked) [Compound 290]", "DC50": "> 1000"}, {"smiles": "CC1(N)CCN(c2cnc(Sc3cccc(NCc4ccc(N5CCC(N6CCN(c7ccc8c(c7)C(=O)N(C7CCC(=O)NC7=O)C8)CC6)CC5)c(F)c4)c3)cn2)CC1", "note": "(centres unmarked) [Compound 291]", "DC50": "> 1000"}, {"smiles": "Cc1ncsc1-c1ccc([C@H](C)NC(=O)[C@@H]2C[C@@H](O)CN2C(=O)[C@@H](NC(=O)c2cnc(N3CCN(C4CC(C(=O)Nc5cccc(Sc6cnc(N7CCC8(CC7)CO[C@@H](C)[C@H]8N)cn6)c5)C4)CC3)nc2)C(C)(C)C)cc1", "note": "(stereo partly drawn) [Compound 294, 2-(4-(3-((3-((5-((3S,4S)-4-amino-3-methyl-2-oxa-8-azaspiro[4.5]decan-8-yl)pyrazin-2-yl)thio)phenyl)carbamoyl)cyclobutyl)piperazin-1-yl)-N—((S)-1-((2S,4R)-4-hydroxyl-2-(((S)-1-(4-(4-methylthiazol-5-yl)phenyl)ethyl)carbamoyl)pyrrolin-1-yl)-3,3-dimethyl-1-oxobutane-2-yl)pyrimidine-5-formamide hydrochloride]", "DC50": "< 100"}, {"smiles": "CC1(N)CCN(c2cnc(Sc3cccc(NC(=O)c4ccc(N5CCC(N6CC=C(c7ccc(C(=O)NCc8ccc9c(c8)CN(C8CCC(=O)NC8=O)C9=O)nc7)CC6)CC5)c(F)c4)c3)cn2)CC1", "note": "(centres unmarked) [Compound 295, hydrochloride]", "DC50": "< 100"}, {"smiles": "CC1(N)CCN(c2cnc(Sc3cccc(NC(=O)C4CC(N5CCC(N6CC=C(c7ccc(C(=O)NCc8ccc9c(c8)CN(C8CCC(=O)NC8=O)C9=O)nn7)CC6)CC5)C4)c3)cn2)CC1", "note": "(centres unmarked) [Compound 296]", "DC50": "< 100"}, {"smiles": "C[C@@H]1OCC2(CCN(c3cnc(Sc4cccc(NC(=O)c5cccc(CN6CCN(c7ccc8c(c7)CN(C7CCC(=O)NC7=O)C8=O)CC6)c5)c4)cn3)CC2)[C@@H]1N", "note": "(some centres unmarked) [Compound 297]", "DC50": "> 1000"}, {"smiles": "CC1(N)CCN(c2cnc(Sc3cccc(NC(=O)c4cccc(CN5CCN(c6ccc7c(c6)CN(C6CCC(=O)NC6=O)C7=O)CC5)c4)c3)cn2)CC1", "note": "(centres unmarked) [Compound 298]", "DC50": "> 1000"}, {"smiles": "CC1(N)CCN(c2cnc(Sc3cccc(NC(=O)C4CC45CCN(c4ccc(C(=O)NCc6ccc7c(c6)CN(C6CCC(=O)NC6=O)C7=O)nn4)CC5)c3)cn2)CC1", "note": "(centres unmarked) [Compound 299]", "DC50": "> 1000"}, {"smiles": "CC1(N)CCN(c2cnc(Sc3cccc(NC(=O)C4CC(N5CC=C(c6ccc(C(=O)NCc7ccc8c(c7)C(=O)N(C7CCC(=O)NC7=O)C8)nc6)CC5)C4)c3)cn2)CC1", "note": "(centres unmarked) [Compound 302]", "DC50": "> 1000"}, {"smiles": "CC1(N)CCN(c2cnc(Sc3cccc(NC(=O)c4ccc(N5CCC(N6CC=C(c7ccc(C(=O)NCc8ccc9c(c8)CN(C8CCC(=O)NC8=O)C9=O)nc7)C(C)(C)C6)CC5)cc4)c3)cn2)CC1", "note": "(centres unmarked) [Compound 303]", "DC50": "< 100"}, {"smiles": "CC1(N)CCN(c2cnc(Sc3cccc(NC(=O)c4ccc(N5CCC(N6CC=C(c7ccc(C(=O)N8CCN(c9ccc%10c(c9)CN(C9CCC(=O)NC9=O)C%10=O)CC8)nc7)C(C)(C)C6)CC5)cc4)c3)cn2)CC1", "note": "(centres unmarked) [Compound 304]", "DC50": "< 100"}, {"smiles": "CC1(N)CCN(c2cnc(Sc3cccc(NC(=O)C4CCC(N5CC=C(c6ccc(C(=O)N7CCN(c8ccc9c(c8)CN(C8CCC(=O)NC8=O)C9=O)CC7)nc6)CC5)CC4)c3)cn2)CC1", "note": "(centres unmarked) [Compound 305]", "DC50": "> 1000"}, {"smiles": "CC1(N)CCN(c2cnc(Sc3cccc(NC(=O)c4ccc(N5CCC(C(=O)NCc6ccc7c(c6)CN(C6CCC(=O)NC6=O)C7=O)CC5)c(F)c4)c3)cn2)CC1", "note": "(centres unmarked) [Compound 306]", "DC50": "> 1000"}, {"smiles": "CC1(N)CCN(c2cnc(Sc3cccc(NC(=O)c4ccc(C5=CCC(N6CC=C(c7ccc(C(=O)NCc8ccc9c(c8)CN(C8CCC(=O)NC8=O)C9=O)nc7)CC6)CC5)cc4)c3)cn2)CC1", "note": "(centres unmarked) [Compound 307]", "DC50": "< 100"}, {"smiles": "CC1(N)CCN(c2cnc(Sc3cccc(NC(=O)c4ccc(C5=CCC(N6CC=C(c7ccc(C(=O)N8CCN(c9ccc%10c(c9)CN(C9CCC(=O)NC9=O)C%10=O)CC8)nc7)CC6)CC5)cc4)c3)cn2)CC1", "note": "(centres unmarked) [Compound 308]", "DC50": "< 100"}, {"smiles": "CC1(N)CCN(c2cnc(Sc3cccc(NC(=O)c4ccc(C5=CCC(N6CC=C(c7ccc(C(=O)NCc8ccc9c(c8)CN(C8CCC(=O)NC8=O)C9=O)nn7)CC6)CC5)cc4)c3)cn2)CC1", "note": "(centres unmarked) [Compound 309]", "DC50": "< 100"}, {"smiles": "CC1(N)CCN(c2cnc(Sc3cccc(NC(=O)C4CC(N5CCC(N6CC=C(c7ccc(C(=O)Nc8ccc9c(c8)CN(C8CCC(=O)NC8=O)C9=O)nn7)CC6)CC5)C4)c3)cn2)CC1", "note": "(centres unmarked) [Compound 310]", "DC50": "< 100"}, {"smiles": "CC1(N)CCN(c2cnc(Sc3cccc(NC(=O)C4CC5(C4)CC(N4CC=C(c6ccc(C(=O)NCc7ccc8c(c7)CN(C7CCC(=O)NC7=O)C8=O)nn6)CC4)C5)c3)cn2)CC1", "note": "(centres unmarked) [Compound 311]", "DC50": "> 1000"}]}]}
